In patent publication US11364242B2, “Treatment agents for inhibiting HIV and cancer in HIV infected patients” (UNIVERSITY OF MARYLAND, BALTIMORE, priority 2015, dated 2022):
Like-named read-outs stand apart in the source and are kept apart here.

Experiments:
R5 HIV BaL = assay: PBL infectivity assay, p24 ELISA day 7; assay type: cell-based, HIV-1; settings: Human immunodeficiency virus 1, BAL; PBLs from three donors
Excerpt: (§1) PBLs were isolated from buffy coats of HIV seronegative donors (New York Blood Center). The laboratory-adapted strains HIV BaL and HIV HXB2; primary isolates HIV 92BR020, 92UG031, 93BR029, and 93UG082; and multidrug resistant molecular clone NL4329129-2 were obtained from the NIH AIDS Repository. Primary isolate 2044 was from Paul Clapham (Windeyer Institute), and 1633 and 1638 from the Institute of Human Virology (University of Maryland School of Medicine). Maraviroc, efavirenz, raltegravir, and indinavir were from the NIH AIDS Repository. INK128 was purchased from ApexBio. Proliferation of PBLs was measured by the MTT kit (Roche), following the manufacturer's directions. PBL infectivity assays were performed as described herein.
(§2) PBLs were separated from buffy coats by density centrifugation over Ficoll-Hypaque (Sigma™), and activated by culture in the presence of 1 μg/mL anti-human CD3 antibody (clone x35, Fisher Scientific™) and 2 μg/mL anti-human CD28 antibody (Clone CD28.6, eBioscience™) for 3 days. Activated cells were infected by incubation with virus at a multiplicity of infection (MOI) of 0.001 for 2 hours. […] On day 7, viral replication was measured by p24 ELISA (Coulter) in culture supernatants and cell viability was measured by MTT assays.
(§3) EC50 values were determined by variable slope nonlinear regression analysis. […]

X4 HIV HXB2 = assay: PBL infectivity assay, p24 ELISA day 7; assay type: cell-based, HIV-1; settings: Human immunodeficiency virus 1, HXB2; PBLs from three donors
Excerpt: as §1, §2, §3

[1] = tested on: R5 and X4 HIV, laboratory-adapted and primary isolates; assay: Infectivity assays in primary PBLs, summary over strains; assay type: cell-based
Experimental: (§4) PBLs were separated from buffy coats by density centrifugation over Ficoll-Hypaque (Sigma™), and activated by culture in the presence of 1 μg/mL anti-human CD3 antibody (clone x35, Fisher Scientific™) and 2 μg/mL anti-human CD28 antibody (Clone CD28.6, eBioscience™) for 3 days. Activated cells were infected by incubation with virus at a multiplicity of infection (MOI) of 0.001 for 2 hours. Infected cells were washed three times with PBS and cultured in 5% CO2 at 37° C., in RPMI/10% FBS supplemented with 100 units/mL IL-2 (Roche™) and antiviral drugs, in 96-well flat-bottom plates at a density of […] PBLs per 200 μL. Following 3 d of culture, half of the medium was replaced with fresh medium containing IL-2 and antiviral drugs. On day 7, viral replication was measured by p24 ELISA (Coulter) in culture supernatants and cell viability was measured by MTT assays.
The antiviral activity of INK128 was investigated in PBLs infected with CCR5 (R5)-tropic and CXCR4 (X4)-tropic HIV reference strains BaL and HXB2, respectively.

R5 HIV (JRFL) = assay: Real-time PCR of early reverse transcription products and integrated HIV DNA in infected PBLs; assay type: cell-based; settings: 72 hours, PBLs from two donors
Experimental: (§5) Activated PBLs were infected with R5 and X4 HIV strains using a MOI of 0.01. Infected cells were cultured in the presence of IL-2 and different concentrations of INK128. Cell aliquots were collected at 16 and 72 hours for analyses of early products of reverse transcription and of integration, respectively, by real time PCR. Detection of early products of reverse transcription was done with primers specific for the R/U5 region (60). For detection of integrated HIV DNA, a real-time nested Alu-HIV PCR assay was used as previously described (61, 62), with the modifications described herein.
DNA was isolated using Miniblood kit (Qiagen™). PCR amplification was performed using Quantitect SYBR Green™ PCR Kit (Qiagen™) in a LightCycler™ (Biorad™). Detection of early products of reverse transcription was done in reactions containing 100 ng of DNA and the primer pair 5′-[…]-3′ (SEQ ID NO. 1) and 5′-[…]-3′ (SEQ ID NO. 2) (R/U5 region) (60). […] Amplified products were analyzed by denaturation/renaturation to verify the specific Tm. The PCR cycle at which the signal entered the exponential range was used for quantification, and HIV copy numbers were corrected for those of α-tubulin. […] As a standard curve for relative quantification of integrated DNA, the Alu-gag was first run using serial dilutions of DNA isolated from HIV infected PBLs (diluted in HIV-negative DNA). […]

X4 HIV (HXB2) = assay: as above; assay type: cell-based; settings: PBLs from two donors
Experimental: as §5
DNA was isolated using Miniblood kit (Qiagen™). PCR amplification was performed using Quantitect SYBR Green™ PCR Kit (Qiagen™) in a LightCycler™ (Biorad™). Detection of early products of reverse transcription was done in reactions containing 100 ng of DNA and the primer pair 5′-[…]-3′ (SEQ ID NO. 1) and 5′-[…]-3′ (SEQ ID NO. 2) (R/U5 region) (60). […] Amplified products were analyzed by denaturation/renaturation to verify the specific Tm. The PCR cycle at which the signal entered the exponential range was used for quantification, and HIV copy numbers were corrected for those of α-tubulin. […] As a standard curve for relative quantification of integrated DNA, the Alu-gag was first run using serial dilutions of DNA isolated from HIV infected PBLs (diluted in HIV-negative DNA).

U1 cells = assay: U1 cell proliferation (optimization experiments); assay type: cell-based; settings: concentrations higher than 10 nM
HIV-1 BaL = assay: Antiretroviral potency with and without INK128 in PBLs infected with HIV BaL; assay type: cell-based; settings: two donors
Experimental: as §4
Available ARTs target the HIV lifecycle steps of entry, reverse transcription, integration, and maturation. […] In addition, by targeting virus transcription, INK128 could have favorable interactions with inhibitors of reverse transcription (RTIs), integration (Hs), and protease (PIs). […] We conducted these assays in activated PBLs infected with R5 HIV BaL and treated with various dilutions of Maraviroc (CCR5 antagonist), Efavirenz (RTI), Raltegravir (II), and Indinavir (PI). INK128 was used at low concentrations (<EC50) to better detect changes in ART potency (Table 7).
Prism software. Data are from 2 experiments, each with a different donor.

CXCR4 = assay: Flow cytometry quantitation of surface receptor on PBLs; settings: IL-2, 7 days, three donors
CD4 = assay: as above; settings: IL-2, 7 days, three donors

In the case of `CC(C)n1nc(-c2ccc3oc(N)nc3c2)c2c(N)ncnc21` [INK128, 5-(4-amino-1-propan-2-ylpyrazolo[3,4-d]pyrimidin-3-yl)-1,3-benzoxazol-2-amine], the EC50 (R5 HIV BaL) is reported as 0.0105 µM, the EC50 (X4 HIV HXB2) is reported as 0.038 µM and the EC50 ([1]; Human immunodeficiency virus 1, Lymphocyte, both R5 and X4 HIV in primary lymphocytes) is reported as less than 0.05 µM. The EC50 ([1]; Human immunodeficiency virus 1, read-out: EC50s ranging, R5 primary isolates, three donors) was 0.0029 to 0.0101 µM, the EC50 ([1]; Human immunodeficiency virus 1, read-out: EC50s ranging, X4 primary isolates, three donors) was 0.0175 to 0.0367 µM and the integrated provirus (R5 HIV (JRFL)) was “decreased levels”. The R/U5 transcripts (X4 HIV (HXB2); 16 hours) was “did not decrease”, the integrated provirus (X4 HIV (HXB2); 72 hours) was “did not decrease” and the “cell proliferation of U1 cells” value (U1 cells) was “inhibition of cell proliferation”. For the same molecule, the “effect on the potency of the other tested ARTs (Efavirenz, Raltegravir, Indinavir)” value (HIV-1 BaL) was “no negative effect”, the “enhancement of the antiviral potency of Maraviroc” value (HIV-1 BaL) was “five- to six fold” and the “CXCR4 levels (percentage or density)” value (CXCR4) was “did not change”. For the same molecule, the CD4 receptor levels (CD4) was “did not impact”.
